Key:
Corticium sasakii = assay: Activity against sheath blight on rice caused by Corticium sasakii; assay type: in vivo; settings: rice plants "Tai-Nong 67", after 11 days
Protocol: (§1) The active compounds, separately or jointly, were prepared as a stock solution comprising 0.25% by weight of active compound in acetone or DMSO. 1% by weight of the emulsifier Uniperol® EL (wetting agent having emulsifying and dispersant action based on ethoxylated alkylphenols) was added to this solution, and the mixture was diluted with water to the desired concentration.
Use Example 2—Activity Against Sheath Blight on Rice Caused by Corticium sasakii
Pots with rice plants of the cultivar “Tai-Nong 67”, were sprayed to runoff point with an aqueous suspension having the concentration of active compounds stated below. The next day, oat grains infected with Corticium sasakii were placed into the pots (in each case 5 grains per pot). The plants were then placed in a chamber at 26° C. and maximum atmospheric humidity. After 11 days, the sheath blight on the untreated but infected control plants had developed to such an extent that the infection could be determined visually in %.
Evaluation was carried out analogously to Example 1.

Cochliobolus miyabeanus = assay: Activity against brown spot of rice caused by Cochliobolus miyabeanus, protective application; assay type: in vivo; settings: rice seedlings "Tai-Nong 67", six days after inoculation
Protocol: as §1
Use Example 1—Activity Against Brown Spot of Rice Caused by Cochliobolus miyabeanus, Protective Application Leaves of potted rice seedlings of the cultivar “Tai-Nong 67” were sprayed to runoff point with an aqueous suspension of the concentration of active compound stated below. The next day, the plants were inoculated with an aqueous spore suspension of Cochliobolus miyabeanus. The test plants were then placed in climatized chambers at 22-24° C. and 95-99% relative atmospheric humidity for six days. The extent of the development of the infection on the leaves was then determined visually.
Evaluation was carried out by determining the percentage of infected leaf area. These percentages were converted into efficacies.
The efficacy (E) is calculated as follows using Abbot's formula: E=(1−α/β)·100 α corresponds to the fungicidal infection of the treated plants in % and β corresponds to the fungicidal infection of the untreated (control) plants in % An efficacy of 0 means that the infection level of the treated plants corresponds to that of the untreated control plants; an efficacy of 100 means that the treated plants are not infected.
The expected efficacies of mixtures of active compounds are determined using Colby's formula (R. S. Colby, Weeds, 15, 20-22, 1967) and compared with the observed efficacies.
Colby's formula: E=x+y−x·y/100 • E expected efficacy, expressed in % of the untreated control, when using the mixture of the active compounds A and B at the concentrations a and b • x efficacy, expressed in % of the untreated control, when using the active compound A at the concentration a y efficacy, expressed in % of the untreated control, when using the active compound B at the concentration b

Compound | Efficacy in % of the untreated control (Corticium sasakii; 1 ppm in the spray liquor) | Efficacy in % of the untreated control (Corticium sasakii; 4 ppm in the spray liquor) | Efficacy in % of the untreated control (Cochliobolus miyabeanus; 1 ppm in the spray liquor) | Efficacy in % of the untreated control (Cochliobolus miyabeanus; 4 ppm in the spray liquor)
N#Cc1c[nH]cc1-c1cccc2c1OC(F)(F)O2 [II (fludioxonil), 4-(2,2-difluorobenzo[1,3]dioxol-4-yl)-1H-pyrrole-3-carbonitrile] | 0% | 6% | 0% | 33%
CC1CCN(c2c(-c3c(F)cc(F)cc3F)c(Cl)nc3ncnn23)CC1 [I, 5-chloro-7-(4-methylpiperidin-1-yl)-6-(2,4,6-trifluorophenyl)-[1,2,4]triazolo[1,5-a]pyrimidine] | – | 37% | – | 33%
